Values quoted from earlier work, collected in patent publication US11192954B2, “Compounds and methods for the treatment of TROP2 positive diseases” (BIO-THERA SOLUTIONS, LTD., priority 2017, dated 2021).

Legend:
[1] = tested on: multiple cancer cell lines; conditions: cited from earlier work
[2] = tested on: Lewis lung carcinoma and B-16 melanocarcinoma solid murine tumor models; conditions: mouse, in vivo; cited from earlier work

SMILES | Activity against multiple cancer cell lines [1] | Activity against murine tumors [2]
COc1cc2cc(c1Cl)N(C)C(=O)C[C@H](OC(=O)C(C)C)[C@]1(C)O[C@@H]1[C@H](C)[C@@H]1C[C@@](O)(NC(=O)O1)[C@H](OC)/C=C/C=C(\C)C2 [Ansamitocin P3] | effective | –
COc1cc2cc(c1Cl)N(C)C(=O)C[C@H](OC(=O)[C@H](C)N(C)C(C)=O)[C@]1(C)O[C@H]1[C@H](C)[C@@H]1C[C@@](O)(NC(=O)O1)[C@H](OC)/C=C/C=C(\C)C2 [Maytansine] | – | significant inhibitory activity
